Experimental data reported in PMC8467595, “Protective Effects of Linearthin and Other Chalcone Derivatives from Aspalathus linearis (Rooibos) against UVB Induced Oxidative Stress and Toxicity in Human Skin Cells” (Plants, 2021).
≈ marks a conversion by molar mass, not a printed value. Read-outs that look alike come from different tables or passages of the source.

Key:
[1] = system: HaCaT cells; experiment: MTT cytotoxicity assay, pre-treatment 4 or 24 h with or without UVB irradiation; type: cell-based; settings: Homo sapiens, read-out: IC50 (50% inhibition of viable cell number, MTT)
Protocol: (§1) The human epidermal keratinocytes (HaCaT) and melanoma (SK-MEL-1) cells used in this study were cultured in Roswell Park Memorial Institute (RPMI) 1640 media supplemented with antibiotics (100 U/mL streptomycin, 100 U/mL penicillin) and fetal calf serum (FCS, 10%). Cells were maintained at 37 °C in a humidified atmosphere of 5% CO2.
(§2) For experiments, before exposure to UVB, the cells were conditioned with various concentrations of total extract and isolated compounds thereof for 4 or 24 h. These periods were selected based on the half-life of the compounds as well as previous studies. Exposure to UVB was done according to a previous study. Cells were seeded (3 × 10^4) in 96-well tissue culture microtitre plates. Cell culture media was aspirated and the cells were overlayed with PBS. The cells were exposed to UVB light (80 mJ/cm^2) without the plastic lid. A UVIlink UV Crosslinker (UVitek Ltd., Aberdeen, UK) was fitted with six 8 Watt UV tubes giving a wavelength of 302 nm (Vilber Lourmat, Collégien, France). Control plates were not exposed to UVB light.
(§3) The MTT assay has been extensively used for determining the cytoprotective effects of several phytochemicals. To monitor cell viability as a measure of metabolic activity the MTT assay was performed. The conditioned HaCat and SK-MEL-1 cells (15,000 cells per well in 96-well plates) were incubated for 2 h using 100 μL MTT solution (5 mg/mL) after PBS washing. The MTT formazan crystals were then solubilised by DMSO resuspension. The optical density of the formazan product was read at 570 nm wavelength with a reference wavelength of 690 nm. The half-maximal inhibitory concentration (IC50) was determined.

[2] = system: SK-MEL-1 cells; experiment: as above; type: cell-based; settings: Homo sapiens, read-out: IC50 (50% inhibition of viable cell number, MTT)
Protocol: as §1, §2, §3

[3] = system: HaCaT cells; experiment: ATP bioluminescent assay (Cell Titer-Glo); type: cell-based, human; settings: for ATP vs control cell levels: 24 h pre-exposure, UVB irradiated cells
Protocol: as §2
The ATP bioluminescent assay was used to quantify cellular ATP. The Cell Titer-Glo® assay (Promega, Madison, WI, USA) was carried out according to the manufacturer’s instructions. Cells were seeded in a white microtitre plate (20,000 cells per well) to which the ATP Cell Titer-Glo® Reagent was added (50 μL). The plate was incubated for 30 min at room temperature (RT) in the dark. Luminescence was measured on a Multiskan Spectrum plate reader (Thermo Fisher Scientific, Waltham, MA, USA). Luminescence is proportional to ATP levels and expressed as relative light units (RLU).

[4] = system: HaCaT cells; experiment: Caspase 3/7 activation (ApoTox-Glo Triplex Assay); type: cell-based, human; settings: UVB irradiated cells
Protocol: as §2
(§4) The ApoTox-Glo™ Triplex Assay (Promega) was used to assess cytotoxicity and apoptosis events in the same cell-based assay well according to the manufacturer’s instructions with no deviation from standard protocol. Both luminescence and fluorescence were detected using a plate reader.

[5] = system: SK-MEL-1 cells; experiment: Caspase 3/7 activation (ApoTox-Glo Triplex Assay); type: cell-based, human; settings: SK-MEL-1, UVB irradiated cells
Protocol: as §2, §4

[6] = system: HaCaT cells; experiment: TBARS lipid peroxidation (MDA); type: cell-based, human; settings: for MDA levels (lipid peroxidation): HaCaT
Protocol: as §2
(§5) The thiobarbituric acid reactive substances (TBARS) was used to quantify the levels of melondialdehyde (a marker of lipid peroxidation) in the supernatant of UVB irradiated and non-irradiated cells. The experiments were conducted as previously described. The optical density was measured at 532 nm with a reference wavelength of 600 nm using a plate reader. The mean optical density of five samples per treatment was calculated and divided by the absorption coefficient (156 mM^−1). Results were expressed as MDA concentration (μM). Reduced glutathione (GSH) was quantified using an in-house protocol with minor modifications. After the addition of reagents, the cells were lysed to allow quantification of GSH colourimetrically using a plate reader.

[7] = system: SK-MEL-1 cells; experiment: ATP bioluminescent assay (Cell Titer-Glo); type: cell-based, human; settings: SK-MEL-1, 10 µg/mL, 24-h pre-treatment
Protocol: For experiments, before exposure to UVB, the cells were conditioned with various concentrations of total extract and isolated compounds thereof for 4 or 24 h. These periods were selected based on the half-life of the compounds as well as previous studies [22, 32]. Exposure to UVB was done according to a previous study. Cells were seeded (3 × 10^4) in 96-well tissue culture microtitre plates. Cell culture media was aspirated and the cells were overlayed with PBS. The cells were exposed to UVB light (80 mJ/cm^2) without the plastic lid. A UVIlink UV Crosslinker (UVitek Ltd., Aberdeen, UK) was fitted with six 8 Watt UV tubes giving a wavelength of 302 nm (Vilber Lourmat, Collégien, France) [22]. Control plates were not exposed to UVB light. The ATP bioluminescent assay was used to quantify cellular ATP. The Cell Titer-Glo® assay (Promega, Madison, WI, USA) was carried out according to the manufacturer’s instructions. Cells were seeded in a white microtitre plate (20,000 cells per well) to which the ATP Cell Titer-Glo® Reagent was added (50 μL). The plate was incubated for 30 min at room temperature (RT) in the dark. Luminescence was measured on a Multiskan Spectrum plate reader (Thermo Fisher Scientific, Waltham, MA, USA). Luminescence is proportional to ATP levels and expressed as relative light units (RLU).

[8] = system: SK-MEL-1 cells; experiment: TBARS lipid peroxidation (MDA); type: cell-based, human; settings: SK-MEL-1, 24-h pre-treatment, after UVB exposure
Protocol: For experiments, before exposure to UVB, the cells were conditioned with various concentrations of total extract and isolated compounds thereof for 4 or 24 h. […] Exposure to UVB was done according to a previous study. Cells were seeded (3 × 10^4) in 96-well tissue culture microtitre plates. Cell culture media was aspirated and the cells were overlayed with PBS. The cells were exposed to UVB light (80 mJ/cm^2) without the plastic lid. A UVIlink UV Crosslinker (UVitek Ltd., Aberdeen, UK) was fitted with six 8 Watt UV tubes giving a wavelength of 302 nm (Vilber Lourmat, Collégien, France) [22]. Control plates were not exposed to UVB light. The thiobarbituric acid reactive substances (TBARS) was used to quantify the levels of melondialdehyde (a marker of lipid peroxidation) in the supernatant of UVB irradiated and non-irradiated cells. The experiments were conducted as previously described [45]. The optical density was measured at 532 nm with a reference wavelength of 600 nm using a plate reader. The mean optical density of five samples per treatment was calculated and divided by the absorption coefficient (156 mM^−1). Results were expressed as MDA concentration (μM).

[9] = system: HaCaT cells; experiment: Reduced glutathione (GSH) quantification; type: cell-based, human
Protocol: as §2, §5

[10] = system: SK-MEL-1 cells; experiment: Reduced glutathione (GSH) quantification; type: cell-based, human; settings: SK-MEL-1 pre-treated cells
Protocol: as §2, §5

[11] = light or radiation study, UVB irradiation after pre-treatment 4 h
[12] = light or radiation study, UVB irradiation after pre-treatment 24 h
[13] = SK-MEL-1, SK-MEL-1, No UV, pre-treatment 4 h
[14] = SK-MEL-1, SK-MEL-1, No UV, pre-treatment 24 h
[15] = SK-MEL-1, light or radiation study, SK-MEL-1, UVB irradiation after pre-treatment 4 h
[16] = SK-MEL-1, light or radiation study, SK-MEL-1, UVB irradiation after pre-treatment 24 h

Row | Structure (SMILES) | IC50 ([1]; No UV, pre-treatment 4 h) [µg/mL] | IC50 ([1]; No UV, pre-treatment 24 h) [µg/mL] | IC50 [1, 11] [µg/mL] | IC50 [1, 12] [µg/mL] | IC50 [2, 13] [µg/mL] | IC50 [2, 14] [µg/mL] | IC50 [2, 15] [µg/mL] | IC50 [2, 16] [µg/mL] | ATP vs control cell levels [3] | caspase 3/7 activation [4] | caspase 3/7 activation [5] | MDA levels (lipid peroxidation) ([6]; 4-h pre-treatment, UVB exposed, vs cells with no isolate intervention) | MDA formation by UVB vs cells not exposed to UVB ([6]; lowest concentration, 4-h pre-treatment, cell line not given) | ATP in UVB irradiated vs non-UVB irradiated cells [7] | MDA levels (lipid peroxidation) ([6]; 24-h pre-treatment, after UVB exposure) | MDA levels (lipid peroxidation) [8] | GSH content ([9]; pre-treatment 4 h, UVB exposed and non-exposed cells) | GSH levels ([9]; pre-treatment 24 h) | GSH levels, resistance to UVB irradiation [10] | ATP in UVB irradiated vs non-irradiated cells ([3]; 100 µg/mL)
1 | O=C(CCc1ccc(O)c(O)c1)c1c(O)cc(O)c2c1OC1(C2)O[C@@H](CO)[C@H](O)[C@H]1O (relative stereo) [Compound 1, linearthin] | 117 (≈ 269 µM) | 105 (≈ 242 µM) | 266 (≈ 612 µM) | 282 (≈ 649 µM) | 330 (≈ 759 µM) | 124 (≈ 285 µM) | 248 (≈ 572 µM) | 143 (≈ 328 µM) | maintain ATP above control cell levels | inhibited the activation of executioner caspases in a dose-dependent manner | inhibited the activation of executioner caspases in a dose-dependent manner | only the lowest concentration reduced MDA significantly | circumvent MDA formation by UVB to below levels observed in cells not exposed to UVB | – | – | – | – | – | – | –
2 | O=C(CCc1ccc(O)c(O)c1)c1c(O)cc(O)c(C2OC(CO)C(O)C(O)C2O)c1O (stereo not drawn) [Compound 2, aspalathin] | 209 (≈ 462 µM) | 122 (≈ 270 µM) | 399 (≈ 882 µM) | 145 (≈ 321 µM) | 93.6 (≈ 207 µM) | 66.4 (≈ 147 µM) | 72.2 (≈ 160 µM) | 70 (≈ 155 µM) | – | inhibited the activation of executioner caspases in a dose-dependent manner | inhibited the activation of executioner caspases in a dose-dependent manner | – | – | significantly increase ATP to above levels observed in non-UVB irradiated cells | significant (p < 0.05) reduction in MDA levels at all tested concentrations | significant (p < 0.05) reduction in MDA levels at all tested concentrations | only active at the lowest concentration tested | only active at the lowest concentration tested | improved GSH levels | –
3 | O=C(CCc1ccc(O)cc1)c1c(O)cc(O)c(C2OC(CO)C(O)C(O)C2O)c1O (stereo not drawn) [Compound 3, nothofagin] | 144 (≈ 330 µM) | 123 (≈ 282 µM) | 196 (≈ 450 µM) | 164 (≈ 376 µM) | 208 (≈ 477 µM) | 210 (≈ 482 µM) | 119 (≈ 273 µM) | 123 (≈ 282 µM) | maintain ATP above control cell levels | inhibited the activation of executioner caspases in a dose-dependent manner | inhibited the activation of executioner caspases in a dose-dependent manner | – | – | significantly increase ATP to above levels observed in non-UVB irradiated cells | – | – | – | – | – | increase ATP in UVB irradiated cells to above levels observed in non-irradiated cells
